Values of other authors in paper PMC9171782 (Proceedings of the National Academy of Sciences of the …, 2022).

What was measured:
[1] = tested on: cynomolgus monkeys
[2] = tested on: GLP-1R with mutation of W33; settings: mutation of W33 conserved in human and primate GLP-1Rs

Compound | insulinotropic activity upon oral intake [1] | agonist activity at W33-mutated GLP-1R [2] | bioavailability (noninjectable formulation in the clinic) | gastrointestinal complaints (such as nausea and vomiting)
Cc1cc(-n2nc3c(c2-n2ccn(-c4ccc5c(cnn5C)c4F)c2=O)[C@H](C)N(C(=O)c2cc4cc([C@H]5CCOC(C)(C)C5)ccc4n2[C@@]2(c4noc(=O)[nH]4)C[C@@H]2C)CC3)cc(C)c1F [LY3502970] | demonstrated | failed to elicit agonist activity | – | –
Semaglutide | – | – | low bioavailability | frequent gastrointestinal complaints
N#Cc1ccc(COc2cccc(C3CCN(Cc4nc5ccc(C(=O)O)cc5n4C[C@@H]4CCO4)CC3)n2)c(F)c1 [PF-06882961] | demonstrated | failed to elicit agonist activity | – | –
Cc1cc(-n2nc3c(c2-n2ccn(-c4ccc5c(cnn5C)c4F)c2=O)[C@H](C)N(C(=O)c2cc4cc(N5CCOC(C)(C)C5)ccc4n2[C@@]2(c4noc(=O)[nH]4)C[C@@H]2C)CC3)cc(C)c1F [CHU-128] | – | failed to elicit agonist activity | – | –
N#Cc1ccc(COc2cccc(C3=CCN(Cc4nc5ccc(C(=O)O)nc5n4C[C@@H]4CCO4)CC3)n2)c(F)c1 [RGT1383] | – | failed to elicit agonist activity | – | –
